The values that follow come from EP0222702A2, “Basic carbonyl derivatives” (CIBA-GEIGY AG, priority 1985, dated 1987).

For assay [1], the system named is Noradrenalin-induzierten Vasokonstriktion, isoliert perfundierten Mesenterialgefässen der Ratte. In words: Inhibition of noradrenaline-induced vasoconstriction in isolated perfused rat mesenteric vessels. The following applies: in vitro, read-out: Hemmung der Noradrenalin-induzierten Vasokonstriktion (ICso). The text has this: Die Verbindungen der Formel 1 und deren Salze besitzen wertvolle pharmakologische Eigenschaften, vor allem im cardiovasculären Bereich. Sie wirken als Calcium-Antagonisten und besitzen a-Rezeptoren blockierende sowie Serotonin-antagonistische Eigenschaften, wie sich z.B. in in-vitro-Versuchen an isoliert perfundierten Mesenterialgefässen der Ratte [McGregor, D.: J.Physiol. 177, 21-30, (1965)] als Hemmung der Kalium-,Noradrenalin-und Serotonin-induzierten Vasokonstriktion, beispielsweise unter Verwendung von 2,6-Dimethyl-4-(3-nitrophenyl)-1,4-dihydropyridin-3-carbonsäurmethylester-5-carbonsäure-[2-[4-(p-fluorben- zoyl)-piperidin-1-yl] -1-phenyl]-äthylester (Diastereomerengemisch) bei einer Konzentration von ca. 5 nMol/Liter (IC50) für die Hemmung der Kalium-induzierten Vasokonstriktion, von ca. 4 nMol/Liter (ICso) für die Hemmung der Noradrenalin-induzierten Vasokonstriktion und von ca. 80 nMol/Liter für die Hemmung der Serotonin-induzierten Vasokonstriktion zeigen lässt.

Assay [2] addresses T1, Serotonin-(5HT2)-Rezeptoren (Rattus norvegicus, UniProt P14842).
T1 construct: from tissue; host or cells: rat brain membranes
In words: Displacement of 3H-ketanserin binding from rat brain membranes. The following applies: read-out: Verdrängung der Bindung von 3H-Ketanserin, Konzentration (ICso). Also on record: species or system Ratten. The text has this: (§1) Ferner lässt sich die Bindung der neuen Verbindungen oder deren Salze an Dihydropyridin-Rezeptoren mittels Verdrängung der Bindung von ^3H-Nitrendipin an Membranen von Meerschweichenherzen in in-vitro-Versuchen [Erne, P. et al,: Biochem. Biophys. Res. Commm., 118, 842-847 (1984)] z.B. unter Verwendung von 2,6-Dimethyl-4-(3-nitrophenyl)-1,4-dihydropyridin-3-carbonsäuremethylester-5-carbonsäure-[2-[4-(p-fluorobenzoyl)-piperidin-1-yl]-1-phenyl] -äthyl ester (Diastereomerengemisch) bei einer Konzentration (IC50) von etwa 0,2 nMol/Liter nachweisen. Ebenso kann die Bindung der erfindungsgemässen Verbindungen an ai-Rezeptoren durch Verdrängung von ^3H-Prazosin aus seinen Bindungsstellen an der Ratten-Cerebralcortex-Membran gemäss der Methodik von P. Greenengass et al., Eur. J. Pharmacol. 55, 323, (1979), bei etwa 300 nMol/Liter in vitro signifikant nachgewiesen werden. Ausserdem lässt sich die Bindung der neuen Verbindungen oder deren Salze an Serotonin-(5HT2)-Rezeptoren mittels Verdrängung der Bindung von ^3H-Ketanserin an Membranen des Rattenhirns [Leysen, J.E. et al.: Molecul. Pharmacol. 21, 301-304, (1982)] z.B. unter Verwendung von 2,6-Dimethyl-4-(3-nitrophenyl)-1,4-dihydropyridin-3-carbonsäuremethylester-5-carbonsäure-[2-[4-(p-fluorbenzoyl)-piperidin-1-yl]-1-phenyl]-äthylester (Diastereomerengemisch) bei einer Konzentration (ICso) von etwa 6,0 nMol/Liter zeigen.
For orientation: Loss of bound radioactivity is the signal in a displacement assay; it reports binding, not function.

Assay [3] deals with T2, Dihydropyridin-Rezeptoren (Cavia porcellus, UniProt O35505).
T2 construct: from tissue; host or cells: guinea pig heart membranes
In words: Displacement of 3H-nitrendipine binding from guinea pig heart membranes. The arrangement: species or system Meerschweichen. The following applies: membranes of guinea pig hearts, in vitro; read-out: Verdrängung der Bindung von 3H-Nitrendipin, Konzentration (IC50).
From the text: as §1

In assay [4] the test system is renal hypertensiven Ratte. In words: Blood pressure lowering in the renal hypertensive rat. The following applies: 2 hours after p.o. application of ca. 2,0 mg/kg. It counts as in vivo. The protocol: Die neuen Verbindungen oder deren Salze bewirken ferner eine Hemmung der durch Angiotensin 11, durch elektrische Stimulation oder durch Phenylephrin oder Noradrenalin induzierten pressorischen Effekte an der "pithed rat" [J.S. Gillespie: Br.J.Pharmacoi. 30, 78 (1967)] bei einer Dosis von etwa 2 mg/kg, und eine Hemmung der durch Serotonin induzierten pressorischen Effekte bei einer Dosis von etwa 6 mg/kg. Die neuen Verbindungen oder deren Salze wirken ausserdem antihypertensiv, was sich z.B. durch Senkung des Blutdrucks an der renal hypertensiven Ratte [Goldblatt et al.: J.exp.med. 59, 347 (1934)] zeigen lässt. So kann z.B. 2 Stunden nach p.o-Applikation von ca. 2,0 mg/kg 2,6-Dimethyl-4-(3-nitrophenyl)-1,4-dihydropyridin-3-carbonsäuremethylester-5-carbonsäure-[2-[4-(p-fluorbenzoyl)-piperidin-1-yl]-1-phenyl]-äthylester (Diastereomerengemisch) an der renal hypertensiven Ratte eine Blutdrucksenkung von ca. -70 mm Hg beobachtet werden.

T1 sequence (P14842 whole entry): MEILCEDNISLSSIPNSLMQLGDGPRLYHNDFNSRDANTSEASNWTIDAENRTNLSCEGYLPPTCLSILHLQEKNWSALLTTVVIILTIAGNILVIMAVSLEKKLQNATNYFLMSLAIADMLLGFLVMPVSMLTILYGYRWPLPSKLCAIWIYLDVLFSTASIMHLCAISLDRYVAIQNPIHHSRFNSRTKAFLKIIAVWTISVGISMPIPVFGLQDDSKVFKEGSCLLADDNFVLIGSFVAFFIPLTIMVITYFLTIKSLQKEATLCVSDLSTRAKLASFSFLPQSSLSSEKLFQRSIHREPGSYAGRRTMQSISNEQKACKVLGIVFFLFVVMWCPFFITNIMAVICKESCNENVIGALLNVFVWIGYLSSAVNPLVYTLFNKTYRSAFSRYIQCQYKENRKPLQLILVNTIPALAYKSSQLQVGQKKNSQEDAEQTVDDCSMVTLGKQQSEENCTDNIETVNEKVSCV
T2 sequence (O35505 whole entry): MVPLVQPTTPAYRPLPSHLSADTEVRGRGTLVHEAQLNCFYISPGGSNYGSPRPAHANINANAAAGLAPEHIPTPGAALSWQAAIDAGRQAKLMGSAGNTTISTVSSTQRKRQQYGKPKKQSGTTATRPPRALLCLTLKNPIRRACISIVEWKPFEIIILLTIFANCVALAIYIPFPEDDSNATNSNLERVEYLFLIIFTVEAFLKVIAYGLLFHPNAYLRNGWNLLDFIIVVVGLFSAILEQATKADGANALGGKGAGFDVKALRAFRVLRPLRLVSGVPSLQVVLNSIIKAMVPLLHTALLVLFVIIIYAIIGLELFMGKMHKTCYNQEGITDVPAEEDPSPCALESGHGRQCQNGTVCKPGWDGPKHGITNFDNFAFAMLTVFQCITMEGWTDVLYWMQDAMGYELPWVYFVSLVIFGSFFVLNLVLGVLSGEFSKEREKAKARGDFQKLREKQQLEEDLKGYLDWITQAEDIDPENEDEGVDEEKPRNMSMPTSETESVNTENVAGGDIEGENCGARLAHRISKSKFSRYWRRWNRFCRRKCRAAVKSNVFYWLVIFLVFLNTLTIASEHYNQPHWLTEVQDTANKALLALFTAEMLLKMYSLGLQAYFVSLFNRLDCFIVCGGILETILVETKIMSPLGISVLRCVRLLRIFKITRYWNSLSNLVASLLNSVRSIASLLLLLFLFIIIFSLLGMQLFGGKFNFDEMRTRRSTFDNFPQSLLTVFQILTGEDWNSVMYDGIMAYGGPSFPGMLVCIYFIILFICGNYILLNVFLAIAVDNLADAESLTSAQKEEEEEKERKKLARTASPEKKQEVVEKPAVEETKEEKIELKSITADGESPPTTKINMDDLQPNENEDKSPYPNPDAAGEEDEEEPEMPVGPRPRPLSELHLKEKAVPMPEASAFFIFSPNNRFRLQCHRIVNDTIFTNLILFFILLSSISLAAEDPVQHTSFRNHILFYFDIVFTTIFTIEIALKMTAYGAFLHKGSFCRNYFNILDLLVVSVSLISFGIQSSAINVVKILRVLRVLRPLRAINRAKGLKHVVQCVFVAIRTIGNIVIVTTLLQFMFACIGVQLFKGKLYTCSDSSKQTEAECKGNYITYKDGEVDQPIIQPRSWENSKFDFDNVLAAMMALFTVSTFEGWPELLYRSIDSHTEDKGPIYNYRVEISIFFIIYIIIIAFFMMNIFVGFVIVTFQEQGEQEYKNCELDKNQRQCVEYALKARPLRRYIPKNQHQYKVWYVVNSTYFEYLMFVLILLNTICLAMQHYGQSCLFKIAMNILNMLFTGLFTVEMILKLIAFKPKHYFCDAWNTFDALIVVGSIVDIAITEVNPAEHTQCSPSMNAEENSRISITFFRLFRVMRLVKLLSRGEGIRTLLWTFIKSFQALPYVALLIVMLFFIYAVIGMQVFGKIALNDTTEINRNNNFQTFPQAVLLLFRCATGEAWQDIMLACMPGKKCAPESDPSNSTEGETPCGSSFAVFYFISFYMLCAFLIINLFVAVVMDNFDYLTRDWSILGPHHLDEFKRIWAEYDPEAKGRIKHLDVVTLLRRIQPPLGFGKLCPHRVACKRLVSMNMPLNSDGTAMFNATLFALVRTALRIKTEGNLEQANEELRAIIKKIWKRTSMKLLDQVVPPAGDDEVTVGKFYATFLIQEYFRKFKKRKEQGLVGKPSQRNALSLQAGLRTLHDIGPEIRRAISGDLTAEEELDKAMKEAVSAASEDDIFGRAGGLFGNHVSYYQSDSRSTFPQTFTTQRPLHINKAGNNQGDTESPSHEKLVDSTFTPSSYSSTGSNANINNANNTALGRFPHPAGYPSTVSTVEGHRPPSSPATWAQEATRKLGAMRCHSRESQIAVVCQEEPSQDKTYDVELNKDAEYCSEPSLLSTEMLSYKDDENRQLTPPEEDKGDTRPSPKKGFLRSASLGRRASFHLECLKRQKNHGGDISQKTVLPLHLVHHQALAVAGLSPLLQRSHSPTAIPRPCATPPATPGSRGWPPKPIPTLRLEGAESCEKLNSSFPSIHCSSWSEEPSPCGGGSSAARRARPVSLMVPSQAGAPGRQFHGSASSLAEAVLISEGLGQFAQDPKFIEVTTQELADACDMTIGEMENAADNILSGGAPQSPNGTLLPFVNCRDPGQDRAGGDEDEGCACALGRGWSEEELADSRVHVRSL

For the molecule `COC(=O)C1=C(C)NC(C)=C(C(=O)OC(CN2CCC(C(=O)c3ccc(F)cc3)CC2)c2ccccc2)C1c1cccc([N+](=O)[O-])c1` (stereo not shown) [Beispiel 1, 2,6-Dimethyl-4-(3-nitrophenyl)-1,4-dihydropyridin-3-carbonsäuremethylester-5-carbonsäure-[2-[4-(p-fluorbenzoyl)-piperidin-1-yl]-1-phenyl]-äthylester], the IC50 is around 4 nM in assay [1], around 6 nM in assay [2] and around 0.2 nM in assay [3]. Moreover, the Blutdrucksenkung entry in assay [4] is on record as “ca. -70 mm Hg”.
